# Assay results as given in ChEMBL document CHEMBL4130506, “Design, synthesis and biological evaluation of N-(4-alkoxy-3-cyanophenyl)isonicotinamide/nicotinamide derivatives as novel xanthine oxidase inhibitors” (Eur J Med Chem, 2017).
# Biological target: T1, Xanthine dehydrogenase/oxidase (Bos taurus, UniProt P80457)
# Assay: Potency index, ratio of allopurinol IC50 to test compound IC50 for bovine xanthine oxidase
# Conditions: cattle; call rule not given here
# T1 sequence (P80457 whole entry): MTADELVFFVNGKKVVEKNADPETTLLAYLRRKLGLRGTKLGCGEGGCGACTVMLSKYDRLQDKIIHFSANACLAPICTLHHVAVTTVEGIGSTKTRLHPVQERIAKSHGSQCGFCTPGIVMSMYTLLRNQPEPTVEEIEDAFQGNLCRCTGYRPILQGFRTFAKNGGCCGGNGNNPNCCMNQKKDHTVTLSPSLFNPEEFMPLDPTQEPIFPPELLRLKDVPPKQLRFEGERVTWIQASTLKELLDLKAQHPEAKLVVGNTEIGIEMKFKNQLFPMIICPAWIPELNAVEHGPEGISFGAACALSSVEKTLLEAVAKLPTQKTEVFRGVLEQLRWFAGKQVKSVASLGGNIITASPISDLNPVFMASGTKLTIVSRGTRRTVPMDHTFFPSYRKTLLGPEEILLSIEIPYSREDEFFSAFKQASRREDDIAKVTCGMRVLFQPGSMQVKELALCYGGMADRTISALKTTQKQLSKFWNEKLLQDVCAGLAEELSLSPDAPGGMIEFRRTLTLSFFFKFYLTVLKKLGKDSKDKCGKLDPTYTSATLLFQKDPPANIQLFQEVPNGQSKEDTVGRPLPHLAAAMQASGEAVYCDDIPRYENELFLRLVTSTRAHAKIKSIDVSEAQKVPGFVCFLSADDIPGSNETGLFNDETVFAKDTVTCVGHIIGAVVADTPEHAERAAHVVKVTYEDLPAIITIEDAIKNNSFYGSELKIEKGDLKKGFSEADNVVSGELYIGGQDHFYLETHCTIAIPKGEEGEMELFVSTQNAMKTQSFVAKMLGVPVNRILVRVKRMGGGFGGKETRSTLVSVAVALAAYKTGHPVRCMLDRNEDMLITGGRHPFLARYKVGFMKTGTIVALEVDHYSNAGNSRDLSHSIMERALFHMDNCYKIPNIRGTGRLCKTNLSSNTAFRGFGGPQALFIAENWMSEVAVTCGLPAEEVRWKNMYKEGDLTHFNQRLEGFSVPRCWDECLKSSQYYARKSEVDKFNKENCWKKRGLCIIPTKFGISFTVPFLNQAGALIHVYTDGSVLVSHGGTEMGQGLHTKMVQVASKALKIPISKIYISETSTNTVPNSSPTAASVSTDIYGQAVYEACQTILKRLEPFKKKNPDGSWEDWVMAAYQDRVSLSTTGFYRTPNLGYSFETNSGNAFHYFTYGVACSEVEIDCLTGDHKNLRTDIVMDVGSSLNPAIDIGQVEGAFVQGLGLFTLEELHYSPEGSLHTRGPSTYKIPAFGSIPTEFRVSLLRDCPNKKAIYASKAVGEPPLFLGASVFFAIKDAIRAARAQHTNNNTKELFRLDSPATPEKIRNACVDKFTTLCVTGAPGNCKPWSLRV
row,Compound,Ratio IC50
1,N#Cc1ccccc1COc1ccc(NC(=O)c2ccncc2)cc1C#N,28.3
2,CC(C)COc1ccc(NC(=O)c2ccncc2)cc1C#N,5.3

# Biological target: T1, Xanthine dehydrogenase/oxidase
# Assay: Inhibition of bovine xanthine oxidase assessed as reduction in uric acid formation at 50 uM using xanthine as substrate preincubated for 10 mins followed by substrate addition by UV spectrophotometric method
# Conditions: cattle
row,Compound,inhibition at 50 µM
1,N#Cc1cc(NC(=O)c2ccccc2)ccc1OCc1ccccc1,< 60%
2,CC(C)Oc1ccc(NC(=O)c2cccnc2)cc1C#N,< 60%
3,CCCCCCCOc1ccc(NC(=O)c2cccnc2)cc1C#N,< 60%
4,N#Cc1cc(NC(=O)c2cccnc2)ccc1OCc1ccc(Cl)cc1,< 60%
5,N#Cc1cc(NC(=O)c2cccnc2)ccc1OC1CCCC1,< 60%
6,CCC(C)Oc1ccc(NC(=O)c2cccnc2)cc1C#N (centres undefined),< 60%
7,CCCCCCCCOc1ccc(NC(=O)c2cccnc2)cc1C#N,< 60%
8,CC(C)COc1ccc(NC(=O)c2ccccn2)cc1C#N,< 60%
9,CCCCCCOc1ccc(NC(=O)c2cccnc2)cc1C#N,< 60%
10,N#Cc1ccc(COc2ccc(NC(=O)c3cccnc3)cc2C#N)cc1,< 60%
11,CC(C)COc1ccc(NC(=O)c2cccnc2)cc1C#N,< 60%
12,CC(C)CCOc1ccc(NC(=O)c2ccccn2)cc1C#N,< 60%

# The remaining lines, values ahead:
row,inhibition at 50 µM,Compound
1,< 60%,CCCOc1ccc(NC(=O)c2cccnc2)cc1C#N
2,< 60%,CCCCOc1ccc(NC(=O)c2ccccn2)cc1C#N
3,< 60%,CCCCCOc1ccc(NC(=O)c2cccnc2)cc1C#N
4,< 60%,N#Cc1cc(NC(=O)c2ccccn2)ccc1OCc1ccc(Cl)cc1
5,< 60%,COCCOc1ccc(NC(=O)c2ccncc2)cc1C#N
6,< 60%,CCCCOc1ccc(NC(=O)c2cccnc2)cc1C#N
7,< 60%,COCCOc1ccc(NC(=O)c2cccnc2)cc1C#N

# Biological target: T1, Xanthine dehydrogenase/oxidase
# Assay: Mixed inhibition of bovine xanthine oxidase assessed as reduction in uric acid formation up to 0.6 uM using xanthine as substrate preincubated for 10 mins followed by substrate addition by Lineweaver-Burk plot analysis
# Conditions: cattle
row,inhibition (INH),Compound
1,Active,N#Cc1ccccc1COc1ccc(NC(=O)c2ccncc2)cc1C#N

# Biological target: T1, Xanthine dehydrogenase/oxidase
# Assay: Inhibition of bovine xanthine oxidase assessed as reduction in uric acid formation using xanthine as substrate preincubated for 10 mins followed by substrate addition by UV spectrophotometric method
# Conditions: not given
row,Compound,IC50
1,N#Cc1ccc(COc2ccc(NC(=O)c3ccncc3)cc2C#N)cc1,2300 nM
2,CCCCCCCOc1ccc(NC(=O)c2ccncc2)cc1C#N,5000 nM
3,CC(C)CCOc1ccc(NC(=O)c2cccnc2)cc1C#N,35000 nM
4,N#Cc1ccccc1COc1ccc(NC(=O)c2ccncc2)cc1C#N,300 nM
5,N#Cc1cc(NC(=O)c2ccncc2)ccc1OC1CCCC1,5700 nM
6,COc1ccccc1COc1ccc(NC(=O)c2ccncc2)cc1C#N,1800 nM
7,N#Cc1cccc(COc2ccc(NC(=O)c3ccncc3)cc2C#N)c1,2000 nM
8,CCCCOc1ccc(NC(=O)c2ccncc2)cc1C#N,2300 nM
9,CCCCCCCCOc1ccc(NC(=O)c2ccncc2)cc1C#N,19200 nM
10,COc1ccc(COc2ccc(NC(=O)c3ccncc3)cc2C#N)cc1,600 nM
11,N#Cc1cc(NC(=O)c2ccncc2)ccc1OCc1ccc(Cl)cc1,800 nM
12,CCCCCOc1ccc(NC(=O)c2ccncc2)cc1C#N,3000 nM
13,CCCOc1ccc(NC(=O)c2ccncc2)cc1C#N,3900 nM
14,N#Cc1cc(-c2n[nH]c(-c3ccncc3)n2)ccn1 [TOPIROXOSTAT],15 nM

# Further lines, results first:
row,IC50,Compound
1,6100 nM,CCC(C)Oc1ccc(NC(=O)c2ccncc2)cc1C#N (centres undefined)
2,900 nM,N#Cc1cc(NC(=O)c2ccncc2)ccc1OCc1ccccc1
3,32800 nM,N#Cc1cc(NC(=O)c2cccnc2)ccc1OCc1ccccc1
4,2700 nM,CCCCCCOc1ccc(NC(=O)c2ccncc2)cc1C#N
5,2000 nM,CC(C)CCOc1ccc(NC(=O)c2ccncc2)cc1C#N
6,22600 nM,N#Cc1cc(NC(=O)c2ccccn2)ccc1OCc1ccccc1
7,9500 nM,CC(C)Oc1ccc(NC(=O)c2ccncc2)cc1C#N
8,1600 nM,CC(C)COc1ccc(NC(=O)c2ccncc2)cc1C#N
